Data taken from patent publication US12690589B2, “Herbicidal compositions comprising pyroxasulfone” (BASF SE, priority 2024, dated 2026).

Key:
Experiment in all cases: Post-emergence application in field trials, herbicidal activity (damage scale 0 to 100%)
Format in all cases: in vivo
[1] = system: Amaranthus retroflexus (AMARE); conditions: 21 DAT, stage 31-49, height 10-12 cm
Method in brief: (§1)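 Field sites with natural or seeded weeds were sprayed post-emergence via flat fan nozzles in 200 l/ha water plus 0.25 v/v % MSO adjuvant, solo or mixed with pyroxasulfone and other partners. Damage was scored 0–100% versus untreated plants at indicated DAT. Colby expected values were used to judge synergy.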

[2] = system: Digitaria sanguinalis (DIGSA); conditions: stage 22, height 10-15 cm
Method in brief: as §1

Hordeum vulgare (HORVW) = conditions: stage 23-29, height 20-25 cm
Method in brief: as §1

[3] = system: Lolium multiflorum (LOLMU); conditions: stage 22-25, height 20-25 cm
Method in brief: as §1

[4] = system: Setaria verticillata (SETVE); conditions: stage 21-23, height 8-16 cm
Method in brief: as §1

Zea mays (ZEAMX) = system: Zea mays (ZEAMX)
Method in brief: as §1

[5] = 7 DAT, g ai/ha A-1 18, B 70, C-12 252
[6] = 7 DAT, g ai/ha A-1 18, B 90, C-12 252
[7] = 21 DAT, g ai/ha A-1 18, B 70, C-12 252
[8] = 21 DAT, g ai/ha A-1 18, B 90, C-12 252
[9] = 42 DAT, g ai/ha A-1 18, B 90, C-12 252
[10] = Table 8.1, 7 DAT, g ai/ha A-1 18, B 70, C-12 1066
[11] = 7 DAT, g ai/ha A-1 12.5, B 70, C-12 252
[12] = 21 DAT, g ai/ha A-1 12.5, B 70, C-12 252
[13] = 28 DAT, g ai/ha A-1 12.5, B 70, C-12 252
[14] = 28 DAT, g ai/ha A-1 18, B 70, C-12 252
[15] = 28 DAT, g ai/ha A-1 18, B 90, C-12 252

Compound: CP(=O)(O)CC[C@H](N)C(=O)O.N [C-12, glufosinate-P-ammonium]
- % Herbicidal activity ([1]; g ai/ha A-1 18, B 70, C-12 252): 90%
- % Herbicidal activity ([1]; g ai/ha A-1 18, B 90, C-12 252): 90%
- % Herbicidal activity [2, 5]: 70%
- % Herbicidal activity [2, 6]: 70%
- % Herbicidal activity [2, 7]: 70%
- % Herbicidal activity [2, 8]: 70%
- % Herbicidal activity ([2]; 42 DAT, g ai/ha A-1 18, B 70, C-12 252): 55%
- % Herbicidal activity [2, 9]: 55%
- % Herbicidal activity [2, 10]: 20%
- % Herbicidal activity ([2]; Table 8.2, 21 DAT, g ai/ha A-1 18, B 70, C-12 1066): 20%
- % Herbicidal activity ([2]; Table 8.4, 42 DAT, g ai/ha A-1 18, B 70, C-12 1066): 10%
- % Herbicidal activity (Hordeum vulgare (HORVW); [11]): 40%
- % Herbicidal activity (Hordeum vulgare (HORVW); [5]): 40%
- % Herbicidal activity (Hordeum vulgare (HORVW); [6]): 40%
- % Herbicidal activity (Hordeum vulgare (HORVW); [12]): 30%
- % Herbicidal activity (Hordeum vulgare (HORVW); [7]): 30%
- % Herbicidal activity (Hordeum vulgare (HORVW); [8]): 30%
- % Herbicidal activity (Hordeum vulgare (HORVW); [13]): 30%
- % Herbicidal activity (Hordeum vulgare (HORVW); [14]): 30%
- % Herbicidal activity (Hordeum vulgare (HORVW); [15]): 30%
- % Herbicidal activity [3, 11]: 50%
- % Herbicidal activity [3, 5]: 50%
- % Herbicidal activity [3, 6]: 50%
- % Herbicidal activity [3, 12]: 30%
- % Herbicidal activity [3, 7]: 30%
- % Herbicidal activity [3, 8]: 30%
- % Herbicidal activity [3, 13]: 30%
- % Herbicidal activity [3, 14]: 30%
- % Herbicidal activity [3, 15]: 30%
- % Herbicidal activity [4, 5]: 65%
- % Herbicidal activity [4, 6]: 65%
- % Herbicidal activity [4, 8]: 65%
- % Herbicidal activity ([4]; 42 DAT, g ai/ha A-1 12.5, B 70, C-12 252): 35%
- % Herbicidal activity [4, 9]: 35%
- % Herbicidal activity [4, 10]: 25%
- % Herbicidal activity ([4]; Table 8.2, 21 DAT, g ai/ha A-1 12.5, B 70, C-12 1066): 25%
- % Herbicidal activity ([4]; Table 8.4, 42 DAT, g ai/ha A-1 12.5, B 70, C-12 1066): 15%
- % Herbicidal activity (Zea mays (ZEAMX); 7 DAT, stage 15-16, height 27-33 cm, g ai/ha A-1 12.5, B 70, C-12 252): 70%
- % Herbicidal activity (Zea mays (ZEAMX); 7 DAT, stage 15-16, height 27-33 cm, g ai/ha A-1 18, B 70, C-12 252): 70%
- % Herbicidal activity (Zea mays (ZEAMX); 7 DAT, stage 15-16, height 27-33 cm, g ai/ha A-1 18, B 90, C-12 252): 70%
- % Herbicidal activity (Zea mays (ZEAMX); 21 DAT, stage 15-16, height 27-33 cm, g ai/ha A-1 12.5, B 70, C-12 252): 60%
- % Herbicidal activity (Zea mays (ZEAMX); 21 DAT, stage 15-16, height 27-33 cm, g ai/ha A-1 18, B 70, C-12 252): 60%
- % Herbicidal activity (Zea mays (ZEAMX); 21 DAT, stage 15-16, height 27-33 cm, g ai/ha A-1 18, B 90, C-12 252): 60%
- % Herbicidal activity (Zea mays (ZEAMX); 42 DAT, stage 15-16, height 27-33 cm, g ai/ha A-1 12.5, B 70, C-12 252): 45%
- % Herbicidal activity (Zea mays (ZEAMX); 42 DAT, stage 15-16, height 27-33 cm, g ai/ha A-1 18, B 70, C-12 252): 45%
- % Herbicidal activity (Zea mays (ZEAMX); 42 DAT, stage 15-16, height 27-33 cm, g ai/ha A-1 18, B 90, C-12 252): 45%
- % Herbicidal activity (Zea mays (ZEAMX); Table 8.1, 7 DAT, stage 15-16, height 50-60 cm, g ai/ha A-1 18, B 70, C-12 1066): 7%
- % Herbicidal activity (Zea mays (ZEAMX); Table 8.1, 7 DAT, stage 15-16, height 50-60 cm, g ai/ha A-1 18, B 90, C-12 1066): 7%
